Measured values: ChEMBL document CHEMBL3124838, “Discovery of 6-aryl-azabenzimidazoles that inhibit the TBK1/IKK-ε kinases” (Bioorg Med Chem Lett, 2014)

Experiments:
[1] = target: Serine/threonine-protein kinase PAK 1 (Homo sapiens) (UniProt Q13153); experiment: Inhibition of human PAK1 assessed as residual activity at 1 uM relative to control
[2] = target: Cyclin-dependent kinase 2 (Homo sapiens, UniProt P24941); experiment: Inhibition of CDK2 (unknown origin)
[3] = target: Calcium/calmodulin-dependent protein kinase type 1 (Homo sapiens) (UniProt Q14012); experiment: Inhibition of human CaMK1 assessed as residual activity at 1 uM relative to control
[4] = target: Myosin light chain kinase, smooth muscle (Homo sapiens) (UniProt Q15746); experiment: Inhibition of human MLCK assessed as residual activity at 1 uM relative to control
[5] = target: T1, Ephrin type-B receptor 1 (Homo sapiens) (UniProt P54762); experiment: Inhibition of human EPHB1 assessed as residual activity at 1 uM relative to control
T1 sequence (whole entry): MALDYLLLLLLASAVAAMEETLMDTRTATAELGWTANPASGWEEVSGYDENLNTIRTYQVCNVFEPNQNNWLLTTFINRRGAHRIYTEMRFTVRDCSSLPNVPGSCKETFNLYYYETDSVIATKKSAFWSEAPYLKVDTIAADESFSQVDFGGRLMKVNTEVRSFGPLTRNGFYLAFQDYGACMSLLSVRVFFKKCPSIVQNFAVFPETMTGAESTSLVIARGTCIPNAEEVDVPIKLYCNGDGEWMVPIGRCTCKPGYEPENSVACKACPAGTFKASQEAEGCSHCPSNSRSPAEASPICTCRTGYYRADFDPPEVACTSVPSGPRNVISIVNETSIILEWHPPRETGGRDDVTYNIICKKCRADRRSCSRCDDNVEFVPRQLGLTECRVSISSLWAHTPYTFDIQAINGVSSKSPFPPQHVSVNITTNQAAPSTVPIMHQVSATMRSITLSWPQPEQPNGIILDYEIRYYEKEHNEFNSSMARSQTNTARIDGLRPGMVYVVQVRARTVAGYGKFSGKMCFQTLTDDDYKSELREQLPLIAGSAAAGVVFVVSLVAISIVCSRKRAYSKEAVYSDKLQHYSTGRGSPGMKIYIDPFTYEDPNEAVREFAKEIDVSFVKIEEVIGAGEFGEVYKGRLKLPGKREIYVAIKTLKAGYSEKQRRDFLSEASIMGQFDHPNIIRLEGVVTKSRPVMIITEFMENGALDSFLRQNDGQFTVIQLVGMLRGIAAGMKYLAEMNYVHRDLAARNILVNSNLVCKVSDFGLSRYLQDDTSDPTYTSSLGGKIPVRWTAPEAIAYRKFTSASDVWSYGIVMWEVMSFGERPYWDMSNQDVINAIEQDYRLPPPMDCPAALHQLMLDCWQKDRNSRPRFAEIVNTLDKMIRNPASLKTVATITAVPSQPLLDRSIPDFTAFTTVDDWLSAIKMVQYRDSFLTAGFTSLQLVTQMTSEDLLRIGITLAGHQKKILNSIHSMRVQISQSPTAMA

[6] = target: Tyrosine-protein kinase Lck (Homo sapiens) (UniProt P06239); experiment: Inhibition of human activated LCK assessed as residual activity at 1 uM relative to control
[7] = target: SRSF protein kinase 1 (Homo sapiens) (UniProt Q96SB4); experiment: Inhibition of human SRPK1 assessed as residual activity at 1 uM relative to control
[8] = target: Protein-tyrosine kinase 6 (Homo sapiens) (UniProt Q13882); experiment: Inhibition of human BRK assessed as residual activity at 1 uM relative to control
[9] = target: T2, Interleukin-1 receptor-associated kinase 4 (Homo sapiens) (UniProt Q9NWZ3); experiment: Inhibition of human IRAK4 assessed as residual activity at 1 uM relative to control
T2 sequence (whole entry): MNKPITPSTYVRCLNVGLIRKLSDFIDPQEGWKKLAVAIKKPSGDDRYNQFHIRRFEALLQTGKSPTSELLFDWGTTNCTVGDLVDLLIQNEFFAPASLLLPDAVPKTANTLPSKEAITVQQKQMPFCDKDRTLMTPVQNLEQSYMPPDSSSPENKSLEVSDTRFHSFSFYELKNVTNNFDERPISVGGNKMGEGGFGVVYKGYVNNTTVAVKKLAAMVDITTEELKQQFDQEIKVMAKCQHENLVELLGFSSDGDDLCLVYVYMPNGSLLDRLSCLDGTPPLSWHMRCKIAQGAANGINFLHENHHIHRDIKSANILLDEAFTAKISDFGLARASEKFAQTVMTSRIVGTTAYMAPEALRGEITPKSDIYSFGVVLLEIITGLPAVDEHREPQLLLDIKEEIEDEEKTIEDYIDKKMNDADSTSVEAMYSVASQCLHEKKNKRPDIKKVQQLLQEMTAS

[10] = target: Tyrosine-protein kinase Lyn (Homo sapiens) (UniProt P07948); experiment: Inhibition of human LYN assessed as residual activity at 1 uM relative to control
[11] = target: Fibroblast growth factor receptor 4 (Homo sapiens) (UniProt P22455); experiment: Inhibition of human FGFR4 assessed as residual activity at 1 uM relative to control
[12] = target: PI3-kinase p110-delta/p85-alpha (Homo sapiens) (UniProt P27986+O00329); experiment: Inhibition of human PI3K p110delta/p85alpha assessed as residual activity at 1 uM relative to control; format: protein-complex assay
[13] = target: T3, Dual specificity mitogen-activated protein kinase kinase 7 (Homo sapiens) (UniProt O14733); experiment: Inhibition of human MKK7beta assessed as residual activity at 1 uM relative to control
T3 sequence (whole entry): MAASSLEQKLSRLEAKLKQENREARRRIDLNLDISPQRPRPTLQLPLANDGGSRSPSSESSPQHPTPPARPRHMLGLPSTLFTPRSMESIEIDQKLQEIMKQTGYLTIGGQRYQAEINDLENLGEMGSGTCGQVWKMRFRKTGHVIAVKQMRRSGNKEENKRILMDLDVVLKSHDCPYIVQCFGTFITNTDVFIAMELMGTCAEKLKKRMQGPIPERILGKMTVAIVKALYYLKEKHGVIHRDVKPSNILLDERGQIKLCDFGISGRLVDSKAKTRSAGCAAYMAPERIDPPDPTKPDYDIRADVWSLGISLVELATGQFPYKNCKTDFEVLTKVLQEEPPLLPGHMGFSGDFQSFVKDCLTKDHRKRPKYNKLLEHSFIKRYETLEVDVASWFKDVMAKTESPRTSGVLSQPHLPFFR

[14] = target: PI3K p110 beta/p85 alpha (Homo sapiens) (UniProt P27986+P42338); experiment: Inhibition of human PI3K p110beta/p85alpha assessed as residual activity at 1 uM relative to control; format: protein-complex assay
[15] = target: Casein kinase II subunit alpha' (Homo sapiens) (UniProt P19784); experiment: Inhibition of human CK2-alpha2 assessed as residual activity at 1 uM relative to control
Casein kinase II subunit alpha' (Homo sapiens), sequence (P19784 whole entry, looked up): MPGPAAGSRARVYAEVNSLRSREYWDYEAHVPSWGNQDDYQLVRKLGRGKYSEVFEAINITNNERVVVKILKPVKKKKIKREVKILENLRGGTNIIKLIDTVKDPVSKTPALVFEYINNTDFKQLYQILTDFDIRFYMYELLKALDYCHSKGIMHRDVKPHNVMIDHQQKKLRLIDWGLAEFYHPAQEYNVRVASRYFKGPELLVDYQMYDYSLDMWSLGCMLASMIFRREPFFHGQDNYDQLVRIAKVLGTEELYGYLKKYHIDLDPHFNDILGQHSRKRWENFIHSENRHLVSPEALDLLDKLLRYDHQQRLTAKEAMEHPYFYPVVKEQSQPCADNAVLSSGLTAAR

Tyrosine-protein kinase Lck (Homo sapiens), sequence (P06239 2-509 limits assumed): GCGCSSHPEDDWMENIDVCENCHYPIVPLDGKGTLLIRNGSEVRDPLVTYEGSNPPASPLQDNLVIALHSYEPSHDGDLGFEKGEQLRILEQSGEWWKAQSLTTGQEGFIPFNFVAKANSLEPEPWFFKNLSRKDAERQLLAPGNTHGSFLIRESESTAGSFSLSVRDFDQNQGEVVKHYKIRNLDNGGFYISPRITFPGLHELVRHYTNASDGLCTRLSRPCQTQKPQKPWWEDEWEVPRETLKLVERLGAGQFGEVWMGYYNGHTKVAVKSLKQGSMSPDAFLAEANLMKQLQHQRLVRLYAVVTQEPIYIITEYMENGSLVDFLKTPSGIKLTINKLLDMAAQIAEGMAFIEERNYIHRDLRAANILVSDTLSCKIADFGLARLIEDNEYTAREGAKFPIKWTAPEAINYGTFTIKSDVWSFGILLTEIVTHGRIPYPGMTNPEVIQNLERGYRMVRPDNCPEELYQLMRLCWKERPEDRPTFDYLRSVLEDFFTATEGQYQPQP
SRSF protein kinase 1 (Homo sapiens), sequence (Q96SB4 whole entry): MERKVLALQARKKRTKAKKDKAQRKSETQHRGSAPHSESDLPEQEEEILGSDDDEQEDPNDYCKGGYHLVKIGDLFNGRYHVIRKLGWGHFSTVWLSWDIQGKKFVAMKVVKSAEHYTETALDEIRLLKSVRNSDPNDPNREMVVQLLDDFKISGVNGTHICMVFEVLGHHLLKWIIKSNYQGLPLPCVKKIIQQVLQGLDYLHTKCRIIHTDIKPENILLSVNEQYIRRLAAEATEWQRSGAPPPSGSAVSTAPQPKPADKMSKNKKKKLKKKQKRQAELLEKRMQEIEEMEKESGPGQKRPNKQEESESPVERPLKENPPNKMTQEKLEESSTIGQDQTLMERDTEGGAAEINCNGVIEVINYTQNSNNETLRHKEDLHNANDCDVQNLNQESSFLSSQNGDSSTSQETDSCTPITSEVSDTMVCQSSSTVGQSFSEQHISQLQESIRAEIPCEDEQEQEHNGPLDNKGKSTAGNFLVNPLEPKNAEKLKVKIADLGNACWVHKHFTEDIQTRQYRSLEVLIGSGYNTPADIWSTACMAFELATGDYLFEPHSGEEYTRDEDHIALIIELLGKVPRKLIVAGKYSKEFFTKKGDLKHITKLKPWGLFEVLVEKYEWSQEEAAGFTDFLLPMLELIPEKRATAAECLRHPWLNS
Fibroblast growth factor receptor 4 (Homo sapiens), sequence (P22455 22-802 limits assumed): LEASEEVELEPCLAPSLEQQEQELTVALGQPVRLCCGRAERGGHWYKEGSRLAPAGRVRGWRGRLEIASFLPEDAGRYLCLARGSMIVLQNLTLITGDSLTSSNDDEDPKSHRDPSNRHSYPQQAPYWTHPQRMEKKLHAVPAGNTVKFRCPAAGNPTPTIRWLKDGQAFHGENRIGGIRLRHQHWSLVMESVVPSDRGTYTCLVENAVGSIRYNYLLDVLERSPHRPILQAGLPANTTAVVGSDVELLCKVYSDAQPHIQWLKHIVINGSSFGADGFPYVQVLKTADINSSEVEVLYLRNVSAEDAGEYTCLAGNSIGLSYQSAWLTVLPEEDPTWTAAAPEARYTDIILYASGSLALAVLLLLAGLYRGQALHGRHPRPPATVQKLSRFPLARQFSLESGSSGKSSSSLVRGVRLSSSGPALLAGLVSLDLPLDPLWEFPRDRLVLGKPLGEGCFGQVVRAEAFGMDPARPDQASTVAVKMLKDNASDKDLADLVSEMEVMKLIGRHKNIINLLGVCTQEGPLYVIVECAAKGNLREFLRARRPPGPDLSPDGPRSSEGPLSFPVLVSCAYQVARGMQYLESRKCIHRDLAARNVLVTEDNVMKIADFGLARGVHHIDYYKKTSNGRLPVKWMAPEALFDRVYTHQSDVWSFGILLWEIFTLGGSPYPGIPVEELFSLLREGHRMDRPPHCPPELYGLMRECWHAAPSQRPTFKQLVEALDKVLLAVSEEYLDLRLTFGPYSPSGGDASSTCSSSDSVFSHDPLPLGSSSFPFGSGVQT
Tyrosine-protein kinase Lyn (Homo sapiens), sequence (P07948 2-512 limits assumed): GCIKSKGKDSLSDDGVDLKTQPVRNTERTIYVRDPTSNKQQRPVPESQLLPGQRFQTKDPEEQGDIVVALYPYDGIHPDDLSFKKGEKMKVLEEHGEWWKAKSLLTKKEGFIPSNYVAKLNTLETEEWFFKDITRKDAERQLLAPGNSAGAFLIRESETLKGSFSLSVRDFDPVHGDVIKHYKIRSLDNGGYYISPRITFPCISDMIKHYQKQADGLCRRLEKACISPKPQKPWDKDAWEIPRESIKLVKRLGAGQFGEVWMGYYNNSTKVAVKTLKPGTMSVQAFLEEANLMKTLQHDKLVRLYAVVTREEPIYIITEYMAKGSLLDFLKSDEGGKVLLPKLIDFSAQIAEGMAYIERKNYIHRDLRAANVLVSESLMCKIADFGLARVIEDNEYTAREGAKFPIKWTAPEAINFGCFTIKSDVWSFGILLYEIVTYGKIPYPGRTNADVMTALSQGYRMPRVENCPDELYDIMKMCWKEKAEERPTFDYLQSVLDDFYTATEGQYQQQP
Serine/threonine-protein kinase PAK 1 (Homo sapiens), sequence (Q13153 whole entry): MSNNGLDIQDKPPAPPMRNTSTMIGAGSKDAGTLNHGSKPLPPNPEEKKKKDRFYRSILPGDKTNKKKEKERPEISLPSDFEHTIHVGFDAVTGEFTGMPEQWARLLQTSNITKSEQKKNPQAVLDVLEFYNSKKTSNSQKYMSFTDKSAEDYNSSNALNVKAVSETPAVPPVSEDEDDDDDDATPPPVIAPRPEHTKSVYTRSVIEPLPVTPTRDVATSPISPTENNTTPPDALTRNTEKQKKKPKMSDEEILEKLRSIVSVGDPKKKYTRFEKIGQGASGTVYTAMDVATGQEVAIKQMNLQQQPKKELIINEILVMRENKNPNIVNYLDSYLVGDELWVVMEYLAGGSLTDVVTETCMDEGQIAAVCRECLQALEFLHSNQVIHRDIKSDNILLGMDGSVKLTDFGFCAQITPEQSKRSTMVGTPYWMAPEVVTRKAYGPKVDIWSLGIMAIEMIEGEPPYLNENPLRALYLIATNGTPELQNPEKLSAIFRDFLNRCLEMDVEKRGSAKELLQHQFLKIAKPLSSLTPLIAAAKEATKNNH
Calcium/calmodulin-dependent protein kinase type 1 (Homo sapiens), sequence (Q14012 whole entry, looked up): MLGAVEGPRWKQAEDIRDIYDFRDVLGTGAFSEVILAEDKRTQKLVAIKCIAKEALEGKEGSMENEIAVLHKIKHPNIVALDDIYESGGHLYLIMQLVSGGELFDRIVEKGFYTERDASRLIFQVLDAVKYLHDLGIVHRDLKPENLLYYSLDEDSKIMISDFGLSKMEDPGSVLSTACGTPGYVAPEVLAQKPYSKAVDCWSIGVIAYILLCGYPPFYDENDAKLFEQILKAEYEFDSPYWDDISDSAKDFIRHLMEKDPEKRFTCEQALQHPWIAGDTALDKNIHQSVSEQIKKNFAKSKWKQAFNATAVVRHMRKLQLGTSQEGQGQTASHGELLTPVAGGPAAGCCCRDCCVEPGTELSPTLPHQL
Protein-tyrosine kinase 6 (Homo sapiens), sequence (Q13882 whole entry, looked up): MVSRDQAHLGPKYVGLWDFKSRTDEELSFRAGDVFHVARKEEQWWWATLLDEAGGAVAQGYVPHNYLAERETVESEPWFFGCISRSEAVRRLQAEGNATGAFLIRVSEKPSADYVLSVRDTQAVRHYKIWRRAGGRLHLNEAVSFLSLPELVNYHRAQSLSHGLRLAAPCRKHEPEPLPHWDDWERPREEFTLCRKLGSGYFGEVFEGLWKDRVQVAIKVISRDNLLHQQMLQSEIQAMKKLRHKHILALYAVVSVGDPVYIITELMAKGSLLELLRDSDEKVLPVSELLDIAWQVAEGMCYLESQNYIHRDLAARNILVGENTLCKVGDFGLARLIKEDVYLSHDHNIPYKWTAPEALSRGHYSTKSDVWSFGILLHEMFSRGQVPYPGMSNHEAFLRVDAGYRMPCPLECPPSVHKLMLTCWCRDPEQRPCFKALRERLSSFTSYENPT

| Activity [1] [%] | IC50 [2] [µM] | Activity [3] [%] | Activity [4] [%] | Activity [5] [%] | Activity [6] [%] | Activity [7] [%] | Activity [8] [%] | Activity [9] [%] | Activity [10] [%] | Activity [11] [%] | Activity [12] [%] | Activity [13] [%] | Activity [14] [%] | Activity [15] [%] | SMILES |
| --- | --- | --- | --- | --- | --- | --- | --- | --- | --- | --- | --- | --- | --- | --- | --- |
| 105 | > 30 | 102 | 100 | 72 | 56 | 91 | 110 | 75 | 46 | 109 | 94 | 94 | 89 | 91 | COc1ccc(-c2nc3cc(-c4csc(C(=O)NCC(C)C)c4)cnc3[nH]2)cc1 |
| 96 | > 30 | 83 | 106 | 76 | 47 | 96 | 112 | 81 | 39 | 102 | 95 | 92 | 92 | 59 | COc1ccc(-c2nc3cc(-c4csc(C(=O)NCCC(C)C)c4)cnc3[nH]2)cc1 |
| 94 | > 30 | 97 | 95 | 74 | 71 | 94 | 102 | 81 | 61 | 109 | 91 | 88 | 89 | 74 | COc1ccc(-c2nc3cc(-c4csc(C(=O)NCC(C)(C)C)c4)cnc3[nH]2)cc1 |
